Measured values: US11447504B2, “Macrocyclic chlorine substituted indole derivatives” (Bayer Aktiengesellschaft, priority 2017, dated 2022)
Structures can show the parent of a compound that is named as a salt.

Legend:
AMO-1 = assay: Antiproliferation assay 7, AMO-1; assay type: cell-based; details: Homo sapiens, AMO1, 72 h, AMO-1 cells, CellTiter-Glo, read-out: Antiproli AMO-1 IC50 median
Outline: (§1)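 Anti-proliferative effect is determined from CellTiter-Glo signal after a 72-hour incubation at 37° C, with a time-zero reference plate measured in parallel.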

SUDHL5 [1] = assay: Induction of caspase-3/7 activity (Assay 4), SUDHL5; assay type: cell-based; details: Homo sapiens, SU-DHL-5, 3 h, SUDHL5 cells, Caspase-Glo 3/7, read-out: Caspase SUDHL5 EC50 (median)
Outline: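 DLBCL cells treated with compounds for 3 hours at 37° C. Caspase-3/7 activity measured by Caspase-Glo 3/7 luminescence, with medium-only background subtracted.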

SUDHL5 [2] = assay: Induction of cytotoxicity (Assay 6), SUDHL5; details: Homo sapiens, SU-DHL-5, 5 h, read-out: Cytotox SUDHL5 IC50 (median), SUDHL5 cells, 5 hours, CellTiter-Glo
Experimental: (§7) Assay 6 Induction of Cytotoxicity Upon Treatment of Cells with Selected Compounds
(§8) Therefore, cytotoxicity assays were run in parallel in SUDHL5 and SUDHL10 cells.
(§9) The different cell lines were plated in culture medium (RPMI 1640 [GIBCO #22400-089]supplemented with 10% Fetal Bovine Serum) at a density of 3,300 cells in 30 μL/well in a sterile, solid black, flat bottom, polystyrene, TC-treated 384-well microplate (Corning #3571) using Multidrop Combi Reagent Dispenser. As a control, medium without cells was also added to the plate. Cells were incubated in a humidified incubator at 37° C. overnight. […] Rim wells were excluded. The cells were incubated for 5 hours in a humidified incubator at 37° C. After this incubation, 30 μL of CellTiter-Glo® Luminescent Cell Viability reagent (Promega, G7573) was added to each well using the Multidrop Combi Reagent Dispenser, followed by 15 minutes incubation on a shaker at room temperature. Finally, luminescence was read at 0.1 ms, with a gain of 3000 using the PHERAstar FS microplate reader (BMG Labtech).

MV-4-11 = assay: Antiproliferation assay 7, MV-4-11; assay type: cell-based; details: Homo sapiens, MV4-11, 72 h, MV-4-11 cells, CellTiter-Glo, read-out: Antiproli MV-4-11 IC50 median
Outline: as §1

SUDHL10 [3] = assay: Induction of cytotoxicity (Assay 6), SUDHL10; details: Homo sapiens, SU-DHL10, 5 h, read-out: Cytotox SUDHL10 IC50 (median), SUDHL10 cells, 5 hours, CellTiter-Glo
Experimental: as §7, §8, §9

HMC-1-8 = assay: Antiproliferation assay 7, HMC-1-8; assay type: cell-based; details: 72 h, HMC-1-8 cells, CellTiter-Glo, read-out: Antiproli HMC-1-8 IC50 median
Outline: as §1

SK-BR-3 = assay: Antiproliferation assay 7, SK-BR-3; assay type: cell-based; details: Homo sapiens; SK-BR-3 cells, 72 hours, CellTiter-Glo; read-out: Antiproli SK-BR-3 IC50 median
Outline: as §1

A2058 = assay: Antiproliferation assay 7, A2058; assay type: cell-based; details: Homo sapiens; A2058 cells, 72 hours, CellTiter-Glo; read-out: Antiproli A2058 IC50 median
Experimental: (§2) Assessment of the Anti-Proliferative Effect of Compounds in Different Cell Lines
(§3) The impact of compounds on the proliferation of different cell lines was assessed using the CellTiter-Glo® Luminescent Cell Viability reagent from Promega (G7573).
(§4) In parallel, cells were plated in a reference (day 0) plate for time zero determination.
(§5) Rim wells were excluded. The cells were incubated for 72 hours in a humidified incubator at 37° C. The day 0 plate was measured by adding 30 μL/well of CTG solution (CellTiter-Glo® Luminescent Cell Viability reagent, Promega G7573) to time zero wells in the reference plate followed by a 10 minutes incubation and luminescence reading at 0.1 ms. using the PHERAstar FS microplate reader (BMG Labtech).
(§6) After 72 hours incubation, the treated plates were measured in the same way as the day 0 plate mentioned above.

SUDHL10 [4] = assay: Induction of caspase-3/7 activity (Assay 4), SUDHL10; assay type: cell-based; details: Homo sapiens, SU-DHL10, 3 h, SUDHL10 cells, Caspase-Glo 3/7, read-out: Caspase SUDHL10 EC50 (median)
Outline: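 SUDHL10 DLBCL cells treated with compounds for 3 hours at 37 °C in a humidified incubator. Caspase-3/7 activity read with Caspase-Glo 3/7 luminescent reagent. Medium-only background subtracted from all values.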

SUDHL10 [5] = assay: Antiproliferation assay 7, SUDHL10; assay type: cell-based; details: Homo sapiens, SU-DHL10, 72 h, SUDHL10 cells, CellTiter-Glo, read-out: Antiproli SUDHL10 IC50 (median)
Outline: as §1

SUDHL5 [6] = assay: Antiproliferation assay 7, SUDHL5; assay type: cell-based; details: Homo sapiens, SU-DHL-5, 72 h, SUDHL5 cells, CellTiter-Glo, read-out: Antiproli SUDHL5 IC50 (median)
Outline: as §1

KYSE-180 = assay: Antiproliferation assay 7, KYSE-180; assay type: cell-based; details: Homo sapiens; KYSE-180 cells, 72 hours, CellTiter-Glo; read-out: Antiproli KYSE-180 IC50 median
Experimental: as §2, §3, §4, §5, §6

For Cc1c2c(nn1C)CN(C)CCCCn1c(C(=O)O)c(CCCOc3cccc4ccccc34)c3ccc(Cl)c-2c31 (single isomer, unassigned; enantiomer 1) [Example 12, (+)-4-chloro-2,3,14-trimethyl-7-[3-(naphthalen-1-yloxy)propyl]-10,11,12,13,14,15-hexahydro-2H-pyrazolo[3′,4′:8,9][1,6]diazacycloundecino[10,11,1-hi]indole-8-carboxylic acid-N-ethylethanamine Salt (Enantiomer 1)], the IC50 (AMO-1) was 335 nM, the EC50 (SUDHL5 [1]) was 64 nM and the IC50 (SUDHL5 [2]) was 83 nM. The IC50 (MV-4-11) was 441 nM, the IC50 (SUDHL10 [3]) was 140 nM and the IC50 (HMC-1-8) was 1580 nM. The IC50 (SK-BR-3) was 667 nM, the IC50 (A2058) was 4830 nM and the EC50 (SUDHL10 [4]) was 97 nM. It also gave an IC50 (SUDHL10 [5]) of 140 nM, an IC50 (SUDHL5 [6]) of 170 nM and an IC50 (KYSE-180) of 3790 nM.
